Experimental findings from ChEMBL document CHEMBL5576038, “Design of a novel long-acting dual GLP-1/GIP receptor agonist” (Bioorg Med Chem, 2024) are described below.

Test [1] has as its target T1, Gastric inhibitory polypeptide receptor (Homo sapiens, UniProt P48546).
T1 sequence (P48546 whole entry): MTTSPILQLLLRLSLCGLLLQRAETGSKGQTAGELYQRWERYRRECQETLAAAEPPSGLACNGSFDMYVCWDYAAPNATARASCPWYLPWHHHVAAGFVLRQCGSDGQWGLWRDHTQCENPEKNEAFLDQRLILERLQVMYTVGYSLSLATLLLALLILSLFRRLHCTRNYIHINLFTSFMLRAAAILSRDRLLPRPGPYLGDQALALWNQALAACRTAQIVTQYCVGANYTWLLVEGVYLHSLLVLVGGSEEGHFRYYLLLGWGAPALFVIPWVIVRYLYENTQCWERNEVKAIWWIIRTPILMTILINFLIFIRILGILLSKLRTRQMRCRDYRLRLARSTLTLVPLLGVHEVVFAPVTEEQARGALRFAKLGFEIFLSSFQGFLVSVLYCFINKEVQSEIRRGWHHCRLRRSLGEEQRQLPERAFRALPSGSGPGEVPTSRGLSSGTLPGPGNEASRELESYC
As to the kind of experiment: Agonist activity at human GIPR expressed in CHO cells assessed as increase in cAMP production incubated for 30 mins by Eu-cAMP tracer based microplate reader analysis. It counts as functional, cell-based. A general note: Cyclic AMP is a second messenger, typically raised through Gs and lowered through Gi signalling.

The target of test [2] is Glucagon-like peptide 1 receptor (Homo sapiens, UniProt P43220). The experiment in a line: Agonist activity at human GLP-1R expressed in CHO cells assessed as increase in cAMP production incubated for 30 mins by Eu-cAMP tracer based microplate reader analysis. In kind it is functional, cell-based.
Sequence of Glucagon-like peptide 1 receptor (P43220 whole entry): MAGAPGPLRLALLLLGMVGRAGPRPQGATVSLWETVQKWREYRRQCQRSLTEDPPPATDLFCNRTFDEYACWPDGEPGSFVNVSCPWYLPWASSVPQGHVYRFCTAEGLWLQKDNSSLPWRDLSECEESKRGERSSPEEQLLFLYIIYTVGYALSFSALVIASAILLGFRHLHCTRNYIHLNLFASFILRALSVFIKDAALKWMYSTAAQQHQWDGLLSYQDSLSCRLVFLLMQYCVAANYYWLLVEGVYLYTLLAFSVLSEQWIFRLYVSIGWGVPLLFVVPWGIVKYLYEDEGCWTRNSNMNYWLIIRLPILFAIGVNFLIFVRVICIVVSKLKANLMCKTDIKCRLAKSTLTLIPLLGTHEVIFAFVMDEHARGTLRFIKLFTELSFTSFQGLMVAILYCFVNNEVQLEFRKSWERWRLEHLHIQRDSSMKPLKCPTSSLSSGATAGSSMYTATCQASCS

Each structure is given as a SMILES string. pEC50: −log10 of the molar value. Where a SMILES comes first, the peptide text is derived from it. [ ]: non-standard residue; d: D form. The star is where a group is joined. X6 = N[C@@H](CCCCNC(=O)CC[C@H](NC(=O)CCCCCCCCCCCCCCCCC(=O)O)C(=O)O)C(=O)NCCCC[C@H](N)C(=O)N[C@@H](CCCCNC(=O)C*)C(=O)O; X3 = O=C(O)CCCCCCCCCCCCCCCCC(=O)NCCOCCOCC(=O)N[C@@H](CCC(=O)N[C@@H](CCC(=O)N[C@@H](CCCCNC(=O)C*)C(=O)O)C(=O)O)C(=O)O; X5 = O=C(O)CCCCCCCCCCCCCCCCCCC(=O)N[C@@H](CCC(=O)NCCOCCOCC(=O)NCCOCCOCC(=O)N[C@@H](CCCCNC(=O)C*)C(=O)O)C(=O)O; Aib = CC(C)(N)C(=O)O

Usually pEC50 stands for the EC50 on a negative log10 scale, so that one unit is a factor of ten. With `CC(C)C[C@H](NC(=O)[C@H](CC(C)C)NC(=O)[C@H](Cc1c[nH]c2ccccc12)NC(=O)[C@H](CCC(N)=O)NC(=O)[C@@H](NC(=O)[C@H](Cc1ccccc1)NC(=O)[C@H](CC(C)C)NC(=O)[C@H](CCCCN)NC(=O)[C@H](C)NC(=O)[C@H](C)NC(=O)[C@H](CCC(N)=O)NC(=O)[C@H](CCCCN)NC(=O)[C@H](CCC(=O)O)NC(=O)[C@H](CC(C)C)NC(=O)[C@H](CSCC(=O)NCCCC[C@H](NC(=O)COCCOCCNC(=O)COCCOCCNC(=O)CC[C@H](NC(=O)CCCCCCCCCCCCCCCCCCC(=O)O)C(=O)O)C(=O)O)NC(=O)[C@H](Cc1ccc(O)cc1)NC(=O)[C@H](CO)NC(=O)[C@H](Cc1ccc(O)cc1)NC(=O)[C@H](CC(=O)O)NC(=O)[C@H](CO)NC(=O)[C@@H](NC(=O)[C@H](Cc1ccccc1)NC(=O)[C@@H](NC(=O)CNC(=O)[C@H](CCC(=O)O)NC(=O)C(C)(C)NC(=O)[C@@H](N)Cc1ccc(O)cc1)[C@@H](C)O)[C@@H](C)O)C(C)C)C(=O)N[C@@H](C)C(=O)NCC(=O)NCC(=O)N1CCC[C@H]1C(=O)N[C@@H](CO)C(=O)N[C@@H](CO)C(=O)NCC(=O)N[C@@H](C)C(=O)N1CCC[C@H]1C(=O)N1CCC[C@H]1C(=O)N1CCC[C@H]1C(=O)N[C@@H](CO)C(N)=O` (H-Y[Aib]EGTFTSDYSYC(X5)LEKQAAKLFVQWLLAGGPSSGAPPPS-NH2), the pEC50 in test [1] is 9.38; in test [2], 8.87.
Taken in the same sequence, the figures for `CC(C)C[C@H](NC(=O)[C@H](CC(C)C)NC(=O)[C@H](Cc1c[nH]c2ccccc12)NC(=O)[C@H](CSCC(=O)NCCCC[C@H](NC(=O)[C@@H](N)CCCCNC(=O)[C@@H](N)CCCCNC(=O)CC[C@H](NC(=O)CCCCCCCCCCCCCCCCC(=O)O)C(=O)O)C(=O)O)NC(=O)[C@@H](NC(=O)[C@H](Cc1ccccc1)NC(=O)[C@H](CC(C)C)NC(=O)[C@H](CCCCN)NC(=O)[C@H](C)NC(=O)[C@H](C)NC(=O)[C@H](CCC(N)=O)NC(=O)[C@H](CCCCN)NC(=O)[C@H](CCC(=O)O)NC(=O)[C@H](CC(C)C)NC(=O)[C@H](Cc1ccc(O)cc1)NC(=O)[C@H](Cc1ccc(O)cc1)NC(=O)[C@H](CO)NC(=O)[C@H](Cc1ccc(O)cc1)NC(=O)[C@H](CC(=O)O)NC(=O)[C@H](CO)NC(=O)[C@@H](NC(=O)[C@H](Cc1ccccc1)NC(=O)[C@@H](NC(=O)CNC(=O)[C@H](CCC(=O)O)NC(=O)C(C)(C)NC(=O)[C@@H](N)Cc1ccc(O)cc1)[C@@H](C)O)[C@@H](C)O)C(C)C)C(=O)N[C@@H](C)C(=O)NCC(=O)NCC(=O)N1CCC[C@H]1C(=O)N[C@@H](CO)C(=O)N[C@@H](CO)C(=O)NCC(=O)N[C@@H](C)C(=O)N1CCC[C@H]1C(=O)N1CCC[C@H]1C(=O)N1CCC[C@H]1C(=O)N[C@@H](CO)C(N)=O` (H-Y[Aib]EGTFTSDYSYYLEKQAAKLFVC(X6)WLLAGGPSSGAPPPS-NH2) were 8.56 and 9.40.
For `CC(C)C[C@H](NC(=O)[C@H](CC(C)C)NC(=O)[C@H](Cc1c[nH]c2ccccc12)NC(=O)[C@H](CS)NC(=O)[C@@H](NC(=O)[C@H](Cc1ccccc1)NC(=O)[C@H](CC(C)C)NC(=O)[C@H](CCCCN)NC(=O)[C@H](C)NC(=O)[C@H](C)NC(=O)[C@H](CCC(N)=O)NC(=O)[C@H](CCCCN)NC(=O)[C@H](CCC(=O)O)NC(=O)[C@H](CC(C)C)NC(=O)[C@H](Cc1ccc(O)cc1)NC(=O)[C@H](Cc1ccc(O)cc1)NC(=O)[C@H](CO)NC(=O)[C@H](Cc1ccc(O)cc1)NC(=O)[C@H](CC(=O)O)NC(=O)[C@H](CO)NC(=O)[C@@H](NC(=O)[C@H](Cc1ccccc1)NC(=O)[C@@H](NC(=O)CNC(=O)[C@H](CCC(=O)O)NC(=O)C(C)(C)NC(=O)[C@@H](N)Cc1ccc(O)cc1)[C@@H](C)O)[C@@H](C)O)C(C)C)C(=O)N[C@@H](C)C(=O)NCC(=O)NCC(=O)N1CCC[C@H]1C(=O)N[C@@H](CO)C(=O)N[C@@H](CO)C(=O)NCC(=O)N[C@@H](C)C(=O)N1CCC[C@H]1C(=O)N1CCC[C@H]1C(=O)N1CCC[C@H]1C(=O)N[C@@H](CO)C(N)=O` (H-Y[Aib]EGTFTSDYSYYLEKQAAKLFVCWLLAGGPSSGAPPPS-NH2), the pEC50 was 8.59 in test [1] and 9.24 in test [2].
Taken in the same sequence, the figures for `CC(C)C[C@H](NC(=O)[C@H](CC(C)C)NC(=O)[C@H](Cc1c[nH]c2ccccc12)NC(=O)[C@H](CSCC(=O)NCCCC[C@H](NC(=O)CC[C@H](NC(=O)CC[C@H](NC(=O)COCCOCCNC(=O)CCCCCCCCCCCCCCCCC(=O)O)C(=O)O)C(=O)O)C(=O)O)NC(=O)[C@@H](NC(=O)[C@H](Cc1ccccc1)NC(=O)[C@H](CC(C)C)NC(=O)[C@H](CCCCN)NC(=O)[C@H](C)NC(=O)[C@H](C)NC(=O)[C@H](CCC(N)=O)NC(=O)[C@H](CCCCN)NC(=O)[C@H](CCC(=O)O)NC(=O)[C@H](CC(C)C)NC(=O)[C@H](Cc1ccc(O)cc1)NC(=O)[C@H](Cc1ccc(O)cc1)NC(=O)[C@H](CO)NC(=O)[C@H](Cc1ccc(O)cc1)NC(=O)[C@H](CC(=O)O)NC(=O)[C@H](CO)NC(=O)[C@@H](NC(=O)[C@H](Cc1ccccc1)NC(=O)[C@@H](NC(=O)CNC(=O)[C@H](CCC(=O)O)NC(=O)C(C)(C)NC(=O)[C@@H](N)Cc1ccc(O)cc1)[C@@H](C)O)[C@@H](C)O)C(C)C)C(=O)N[C@@H](C)C(=O)NCC(=O)NCC(=O)N1CCC[C@H]1C(=O)N[C@@H](CO)C(=O)N[C@@H](CO)C(=O)NCC(=O)N[C@@H](C)C(=O)N1CCC[C@H]1C(=O)N1CCC[C@H]1C(=O)N1CCC[C@H]1C(=O)N[C@@H](CO)C(N)=O` (H-Y[Aib]EGTFTSDYSYYLEKQAAKLFVC(X3)WLLAGGPSSGAPPPS-NH2) were 9.34 and 9.54.
`CC(C)C[C@H](NC(=O)[C@H](CC(C)C)NC(=O)[C@H](Cc1c[nH]c2ccccc12)NC(=O)[C@H](CCC(N)=O)NC(=O)[C@@H](NC(=O)[C@H](Cc1ccccc1)NC(=O)[C@H](CC(C)C)NC(=O)[C@H](CCCCN)NC(=O)[C@H](C)NC(=O)[C@H](C)NC(=O)[C@H](CCC(N)=O)NC(=O)[C@H](CCCCN)NC(=O)[C@H](CCC(=O)O)NC(=O)[C@H](CC(C)C)NC(=O)[C@H](CS)NC(=O)[C@H](Cc1ccc(O)cc1)NC(=O)[C@H](CO)NC(=O)[C@H](Cc1ccc(O)cc1)NC(=O)[C@H](CC(=O)O)NC(=O)[C@H](CO)NC(=O)[C@@H](NC(=O)[C@H](Cc1ccccc1)NC(=O)[C@@H](NC(=O)CNC(=O)[C@H](CCC(=O)O)NC(=O)C(C)(C)NC(=O)[C@@H](N)Cc1ccc(O)cc1)[C@@H](C)O)[C@@H](C)O)C(C)C)C(=O)N[C@@H](C)C(=O)NCC(=O)NCC(=O)N1CCC[C@H]1C(=O)N[C@@H](CO)C(=O)N[C@@H](CO)C(=O)NCC(=O)N[C@@H](C)C(=O)N1CCC[C@H]1C(=O)N1CCC[C@H]1C(=O)N1CCC[C@H]1C(=O)N[C@@H](CO)C(N)=O` (H-Y[Aib]EGTFTSDYSYCLEKQAAKLFVQWLLAGGPSSGAPPPS-NH2): the pEC50 is 9.41 in test [1] and 9.38 in test [2].
As for `CC(C)C[C@H](NC(=O)[C@H](CCCCN)NC(=O)[C@H](C)NC(=O)[C@H](C)NC(=O)[C@H](CCC(N)=O)NC(=O)[C@H](CCCCN)NC(=O)[C@H](CCC(=O)O)NC(=O)[C@H](CC(C)C)NC(=O)[C@H](Cc1ccc(O)cc1)NC(=O)[C@H](Cc1ccc(O)cc1)NC(=O)[C@H](CO)NC(=O)[C@H](Cc1ccc(O)cc1)NC(=O)[C@H](CC(=O)O)NC(=O)[C@H](CO)NC(=O)[C@@H](NC(=O)[C@H](Cc1ccccc1)NC(=O)[C@@H](NC(=O)CNC(=O)[C@H](CCC(=O)O)NC(=O)C(C)(C)NC(=O)[C@@H](N)Cc1ccc(O)cc1)[C@@H](C)O)[C@@H](C)O)C(=O)N[C@@H](Cc1ccccc1)C(=O)N[C@H](C(=O)N[C@@H](CCC(N)=O)C(=O)N[C@@H](Cc1c[nH]c2ccccc12)C(=O)N[C@@H](CC(C)C)C(=O)N[C@@H](CS)C(=O)N[C@@H](C)C(=O)NCC(=O)NCC(=O)N1CCC[C@H]1C(=O)N[C@@H](CO)C(=O)N[C@@H](CO)C(=O)NCC(=O)N[C@@H](C)C(=O)N1CCC[C@H]1C(=O)N1CCC[C@H]1C(=O)N1CCC[C@H]1C(=O)N[C@@H](CO)C(N)=O)C(C)C` (H-Y[Aib]EGTFTSDYSYYLEKQAAKLFVQWLCAGGPSSGAPPPS-NH2), the pEC50 was 8.63 in test [1] and 8.55 in test [2].
Taken in the same sequence, the figures for `CC(C)C[C@H](NC(=O)[C@H](CC(C)C)NC(=O)[C@H](Cc1c[nH]c2ccccc12)NC(=O)[C@H](CCC(N)=O)NC(=O)[C@@H](NC(=O)[C@H](Cc1ccccc1)NC(=O)[C@H](CC(C)C)NC(=O)[C@H](CSCC(=O)NCCCC[C@H](NC(=O)COCCOCCNC(=O)COCCOCCNC(=O)CC[C@H](NC(=O)CCCCCCCCCCCCCCCCCCC(=O)O)C(=O)O)C(=O)O)NC(=O)[C@H](C)NC(=O)[C@H](C)NC(=O)[C@H](CCC(N)=O)NC(=O)[C@H](CCCCN)NC(=O)[C@H](CCC(=O)O)NC(=O)[C@H](CC(C)C)NC(=O)[C@H](Cc1ccc(O)cc1)NC(=O)[C@H](Cc1ccc(O)cc1)NC(=O)[C@H](CO)NC(=O)[C@H](Cc1ccc(O)cc1)NC(=O)[C@H](CC(=O)O)NC(=O)[C@H](CO)NC(=O)[C@@H](NC(=O)[C@H](Cc1ccccc1)NC(=O)[C@@H](NC(=O)CNC(=O)[C@H](CCC(=O)O)NC(=O)C(C)(C)NC(=O)[C@@H](N)Cc1ccc(O)cc1)[C@@H](C)O)[C@@H](C)O)C(C)C)C(=O)N[C@@H](C)C(=O)NCC(=O)NCC(=O)N1CCC[C@H]1C(=O)N[C@@H](CO)C(=O)N[C@@H](CO)C(=O)NCC(=O)N[C@@H](C)C(=O)N1CCC[C@H]1C(=O)N1CCC[C@H]1C(=O)N1CCC[C@H]1C(=O)N[C@@H](CO)C(N)=O` (H-Y[Aib]EGTFTSDYSYYLEKQAAC(X5)LFVQWLLAGGPSSGAPPPS-NH2) were 8.88 and 9.31.
